We go through 28 compounds from patent publication US20090264433A1, “Compounds, Compositions and Methods Comprising Triazine Derivatives” (Institute for OneWorld Health, priority 2008, published 2009).

Where a name gives a salt, the structure may show the parent alone.

The target in this test is T1, CFTR channel in human colonic T84 cells (Homo sapiens, UniProt P13569).
T1 construct: results in the phosphorylation and opening of CFTR anion channels; host or cells: human colonic T84 cells
T1 sequence (P13569 whole entry): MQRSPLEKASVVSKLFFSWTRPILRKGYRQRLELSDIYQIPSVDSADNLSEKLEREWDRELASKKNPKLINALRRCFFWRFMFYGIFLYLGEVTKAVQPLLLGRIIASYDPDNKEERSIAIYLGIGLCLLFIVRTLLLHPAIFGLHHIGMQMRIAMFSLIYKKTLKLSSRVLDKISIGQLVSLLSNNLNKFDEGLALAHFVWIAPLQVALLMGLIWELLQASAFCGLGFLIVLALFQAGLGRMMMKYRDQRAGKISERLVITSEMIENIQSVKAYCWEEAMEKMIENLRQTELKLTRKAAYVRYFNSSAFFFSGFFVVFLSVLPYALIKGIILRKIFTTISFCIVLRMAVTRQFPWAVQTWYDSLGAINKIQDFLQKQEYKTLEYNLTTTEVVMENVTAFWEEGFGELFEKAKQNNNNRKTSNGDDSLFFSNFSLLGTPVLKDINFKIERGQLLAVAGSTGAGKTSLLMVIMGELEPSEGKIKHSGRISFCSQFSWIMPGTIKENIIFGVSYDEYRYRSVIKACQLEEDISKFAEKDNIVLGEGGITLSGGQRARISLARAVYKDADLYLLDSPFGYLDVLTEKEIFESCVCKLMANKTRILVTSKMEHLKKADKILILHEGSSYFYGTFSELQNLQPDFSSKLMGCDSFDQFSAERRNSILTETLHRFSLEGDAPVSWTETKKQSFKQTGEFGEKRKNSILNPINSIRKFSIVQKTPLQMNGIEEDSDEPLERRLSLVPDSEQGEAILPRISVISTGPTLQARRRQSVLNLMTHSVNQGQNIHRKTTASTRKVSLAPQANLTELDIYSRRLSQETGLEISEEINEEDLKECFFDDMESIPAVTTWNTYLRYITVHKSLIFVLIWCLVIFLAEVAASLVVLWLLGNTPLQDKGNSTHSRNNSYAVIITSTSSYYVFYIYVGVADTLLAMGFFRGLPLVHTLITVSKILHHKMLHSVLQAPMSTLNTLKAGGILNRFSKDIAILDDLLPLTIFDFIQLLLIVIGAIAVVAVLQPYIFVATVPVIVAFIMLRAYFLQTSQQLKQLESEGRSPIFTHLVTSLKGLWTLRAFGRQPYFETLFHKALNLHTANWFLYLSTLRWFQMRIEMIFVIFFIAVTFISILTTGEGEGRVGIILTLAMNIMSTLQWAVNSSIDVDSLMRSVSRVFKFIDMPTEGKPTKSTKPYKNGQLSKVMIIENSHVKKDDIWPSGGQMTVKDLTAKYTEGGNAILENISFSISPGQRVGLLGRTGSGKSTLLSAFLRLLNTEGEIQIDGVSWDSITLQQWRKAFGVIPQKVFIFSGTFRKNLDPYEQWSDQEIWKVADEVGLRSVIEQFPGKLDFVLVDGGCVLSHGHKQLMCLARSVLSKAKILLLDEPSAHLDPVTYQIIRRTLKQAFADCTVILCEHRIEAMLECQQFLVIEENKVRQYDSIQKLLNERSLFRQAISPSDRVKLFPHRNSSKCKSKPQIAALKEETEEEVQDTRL
Description: T84 assay (FLIPR membrane potential dye, forskolin/IBMX-stimulated CFTR). In kind it is cell-based. To be noted: average of at least 2 runs unless annotated n = 1. An outline of the steps:
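T84 cells (25,000/well, grown overnight) were washed in HBSS with 10 mM Hepes, then loaded with FLIPR Red membrane potential dye for 45 min with or without compound. CFTR was stimulated with 10 μM forskolin plus 100 μM IBMX after a 10 s baseline. Depolarization was tracked as a fluorescence increase, read every second for 150 s.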
For `Oc1c(Cl)cc(-c2cnc(OCCNCc3ccccc3)nn2)cc1Cl` [Compound 124, 4-(3-(2-(benzylamino)ethoxy)-1,2,4-triazin-6-yl)-2,6-dichlorophenol], 1.98 µM corresponded to half-maximal inhibition (IC50).

As for `Oc1c(Cl)cc(-c2cnc(OCCNc3ccccc3)nn2)cc1Cl` [Compound 125, 2,6-dichloro-4-(3-(2-(phenylamino)ethoxy)-1,2,4-triazin-6-yl)phenol], half-maximal inhibition (IC50) was put at 25.8 µM. Compared with the last compound, the IC50 is about 13-fold higher.

`O=C(c1cccc(C(F)(F)F)c1)N1CCN(Cc2cc(Cl)ccc2OCc2ncc(-c3cc(Br)c(O)c(Br)c3)nn2)CC1` [Compound 126, (4-(5-chloro-2-((6-(3,5-dibromo-4-hydroxyphenyl)-1,2,4-triazin-3-yl)methoxy)benzyl)piperazin-1-yl)(3-(trifluoromethyl)phenyl)methanone]: 5.44 µM corresponded to half-maximal inhibition (IC50).

As for `Oc1c(Cl)cc(-c2cnc(OCc3ccccc3F)nn2)cc1Cl` [Compound 127, 2,6-dichloro-4-(3-(2-fluorobenzyloxy)-1,2,4-triazin-6-yl)phenol], it took 5.46 µM to reach half-maximal inhibition (IC50).

As for `CC1(C)Cc2cccc(OCc3ncc(-c4cc(Br)c(O)c(Br)c4)nn3)c2O1` [Compound 128, 2,6-dibromo-4-(3-((2,2-dimethyl-2,3-dihydrobenzofuran-7-yloxy)methyl)-1,2,4-triazin-6-yl)phenol], the IC50 (usually the midpoint of a concentration-inhibition curve) came out at 28.8 µM. Against the preceding compound, the IC50 is about 5.3-fold higher.

In turn, `Oc1c(Br)cc(-c2cnc(-c3cccc(Oc4ccccc4)c3)nn2)cc1Br` [Compound 129, 2,6-dibromo-4-(3-(3-phenoxyphenyl)-1,2,4-triazin-6-yl)phenol] yielded an IC50 of 24.8 µM. This IC50 and that of the compound before are within 1.5-fold of each other.

With `Oc1c(Br)cc(-c2cnc(Cc3cccc4ccccc34)nn2)cc1Br` [Compound 130, 2,6-dibromo-4-(3-(naphthalen-1-ylmethyl)-1,2,4-triazin-6-yl)phenol], the IC50 stood at 28.9 µM.

`O=[N+]([O-])c1ccccc1SCc1ncc(-c2cc(Br)c(O)c(Br)c2)nn1` [Compound 131, 2,6-dibromo-4-(3-((2-nitrophenylthio)methyl)-1,2,4-triazin-6-yl)phenol] showed an IC50 of 14.8 µM. Compared with the last compound, the IC50 is about 2-fold lower.

Take `COc1ccc(CNc2ncc(-c3cc(Cl)c(O)c(Cl)c3)nn2)cc1` [Compound 132, 2,6-dichloro-4-(3-(4-methoxybenzylamino)-1,2,4-triazin-6-yl)phenol]: the IC50 was found to be 12.1 µM.

In turn, `Oc1c(Cl)cc(-c2cnc(NCc3ccc(Cl)c(Cl)c3)nn2)cc1Cl` [Compound 133, 2,6-dichloro-4-(3-(3,4-dichlorobenzylamino)-1,2,4-triazin-6-yl)phenol, formate salt] came in with an IC50 of 23.7 µM.

As for `Oc1c(Cl)cc(-c2cnc(NCc3ccc(Cl)cc3Cl)nn2)cc1Cl` [Compound 134, 2,6-dichloro-4-(3-(2,4-dichlorobenzylamino)-1,2,4-triazin-6-yl)phenol, formate salt], the IC50 was determined as 9.65 µM.

`Oc1c(Cl)cc(-c2cnc(NCc3ccc(Cl)cc3)nn2)cc1Cl` [Compound 135, 2,6-dichloro-4-(3-(4-chlorobenzylamino)-1,2,4-triazin-6-yl)phenol] registered an IC50 of 6.14 µM.

`O=S1(=O)CCN(Cc2ccc(COc3ncc(-c4cc(Cl)c(O)c(Cl)c4)nn3)cc2)CC1` [Compound 136, formate salt] gave an IC50 of 18.3 µM.

With `CN1CCN(c2ccc(CNc3ncc(-c4cc(Cl)c(O)c(Cl)c4)nn3)cc2)CC1` [Compound 137, 2,6-dichloro-4-(3-(4-(4-methylpiperazin-1-yl)benzylamino)-1,2,4-triazin-6-yl)phenol, formate salt], inhibition was half-maximal at 21.3 µM (IC50). The IC50 values of the last two compounds are within 1.5-fold of each other.

Regarding `CN(CCOc1ncc(-c2cc(Cl)c(O)c(Cl)c2)nn1)Cc1ccccc1` [Compound 138, 4-(3-(2-(benzyl(methyl)amino)ethoxy)-1,2,4-triazin-6-yl)-2,6-dichlorophenol], the IC50 worked out at 18.9 µM.

In the case of `CC(C)(C)OC(=O)N1CCC(COc2ncc(-c3cc(Cl)c(O)c(Cl)c3)nn2)(c2ccccc2)CC1` [Compound 139, tert-butyl 4-((6-(3,5-dichloro-4-hydroxyphenyl)-1,2,4-triazin-3-yloxy)methyl)-4-phenylpiperidine-1-carboxylate], it took 3.04 µM to reach half-maximal inhibition (IC50).

With `CN(C)c1ccccc1COc1ncc(-c2cc(Cl)c(O)c(Cl)c2)nn1` [Compound 140, 2,6-dichloro-4-(3-(2-(dimethylamino)benzyloxy)-1,2,4-triazin-6-yl)phenol], 19.4 µM corresponded to half-maximal inhibition (IC50). Against the preceding compound, the IC50 is about 6.4-fold higher.

On to `Oc1c(Cl)cc(-c2cnc(OCc3ccc(CNCc4cccc(Cl)c4Cl)cc3)nn2)cc1Cl` [Compound 141, 2,6-dichloro-4-(3-(4-((2,3 —dichlorobenzylamino)methyl)benzyloxy)-1,2,4-triazin-6-yl)phenol], for which half-maximal inhibition (IC50) was put at 3.81 µM.

`O=Cc1ccc(COc2ncc(-c3cc(Cl)c(O)c(Cl)c3)nn2)cc1` [Compound 142, 4-((6-(3,5-dichloro-4-hydroxyphenyl)-1,2,4-triazin-3-yloxy)methyl)benzaldehyde] had an IC50 of 10.7 µM.

As for `Oc1c(Cl)cc(-c2cnc(OCc3ccc(CN4CCN(c5ccccc5)CC4)cc3)nn2)cc1Cl` [Compound 143, 2,6-dichloro-4-(3-(4-((4-phenylpiperazin-1-yl)methyl)benzyloxy)-1,2,4-triazin-6-yl)phenol], the IC50 was determined as 3.75 µM.

Compound `O=C(O)c1ccccc1N1CCN(Cc2ccc(COc3ncc(-c4cc(Cl)c(O)c(Cl)c4)nn3)cc2)CC1` [Compound 144, 2-(4-(4-((6-(3,5-dichloro-4-hydroxyphenyl)-1,2,4-triazin-3-yloxy)methyl)benzyl)piperazin-1-yl)benzic acid] came in with an IC50 of 28.6 µM.

`CC(C)(C)OC(=O)N1CCN(Cc2ccc(COc3ncc(-c4cc(Cl)c(O)c(Cl)c4)nn3)cc2)CC1` [Compound 145, tert-butyl 4-(4-((6-(3,5-dichloro-4-hydroxyphenyl)-1,2,4-triazin-3-yloxy)methyl)benzyl)piperazine1-carboxylate, ammonium salt] returned a half-maximal inhibitory concentration (IC50) of 1.55 µM.

For the compound `Oc1c(Cl)cc(-c2cnc(OCc3ccc(F)cc3)nn2)cc1Cl` [Compound 146, 2,6-dichloro-4-(3-(4-fluorobenzyloxy)-1,2,4-triazin-6-yl)phenol], the IC50 was 5.21 µM. Against the preceding compound, the IC50 is about 3.4-fold higher.

In turn, `Oc1c(Cl)cc(-c2cnc(OCc3ccc(F)c(F)c3)nn2)cc1Cl` [Compound 147, 2,6-dichloro-4-(3-(3,4-difluorobenzyloxy)-1,2,4-triazin-6-yl)phenol] registered a half-inhibitory concentration (IC50) of 2.83 µM.

Take `Oc1c(Cl)cc(-c2cnc(OCc3ccc(F)cc3F)nn2)cc1Cl` [Compound 148, 2,6-dichloro-4-(3-(2,4-difluorobenzyloxy)-1,2,4-triazin-6-yl)phenol]: the 50% inhibitory concentration (IC50) came out at 3.97 µM.

With `Oc1c(Cl)cc(-c2cnc(OCc3ccc(CNCc4cccc5ccccc45)cc3)nn2)cc1Cl` [Compound 149, 2,6-Dichloro-4-(3-(4-((naphthalen-1-ylmethylamino)methyl)benzyloxy)-1,2,4-triazin-6-yl)phenol], it took 3.9 µM to reach half-maximal inhibition (IC50). This IC50 and that of the compound before are within 1.5-fold of each other.

`Oc1c(Cl)cc(-c2cnc(OCc3ccc(CN4CCN(c5ccc(Cl)cc5Cl)CC4)cc3)nn2)cc1Cl` [Compound 150, 2,6-dichloro-4-(3-(4-((4-(2,4-dichlorophenyl)piperazin-1-yl)methyl)benzyloxy)-1,2,4-triazin-6-yl)phenol]: the half-inhibitory concentration (IC50) turned out to be 2.01 µM.

In turn, `Oc1c(Cl)cc(-c2cnc(OCc3ccc(CN4CCN(c5ccc(F)cc5F)CC4)cc3)nn2)cc1Cl` [Compound 151, 2,6-dichloro-4-(3-(4-((4-(2,4-difluorophenyl)piperazin-1-yl)methyl)benzyloxy)-1,2,4-triazin-6-yl)phenol] gave an IC50 of 1.92 µM.
